Results on 1 substance are retold here after patent EP1518554A1, “Pharmaceutical composition for the treatment of hyperhomocysteinemia” (Medosan Industrie Biochimiche Riunite S.r.l., priority 2003, dated 2005).

For this assay, the system named is homocysteine ematic level. Briefly: Randomised clinical study in patients with hyperhomocysteinemia; plasma homocysteine determined by immunoenzymatic test (EIA) at enrolment and after 30 days of treatment. Format: in vivo. From the text:
Assessments about the pharmacological effectiveness of the composition according to the present invention have been carried out according to the following study protocol.
The experimentation has examined a total number of 60 patients assigned to one of the two treatment groups (30 patients to group A and 30 patients to group B).
• Patients of both sexes • Age older than 18 • Homocysteinemia level >15 µmol/l
• Patients suffering from diseases interfering with the homocysteine dosage • Patients in therapy with drugs interfering with the homocysteine metabolism (isoniazid, antiepileptic, methotrexate) • Subjects with ascertained individual hypersensitivity towards the active principles and/of the excipients of the product • Women during pregnancy or puerperium • Patients suffering from diabetes mellitus […]
The obtained data have been assessed statistically withe Student's t test and the significance is expressed as follows: P<0.05*; P<0.01**; P<0.001***

With arginine glutamate, where the note is “general statement of the applicant's experimental data, dose and duration not stated at the place”, the “reduction in the homocysteine plasmatic levels” value is given as 10-15%. Also, the “reduction in the homocysteine plasmatic values” (patients with homocysteinemia >15 µmol/l, 10-ml small bottle which can be drunk, twice a day for 30 days, 30 patients per group, Student's t test (composition 9 p≤0.001; arginine glutamate only p≤0.01)) worked out at 12%.
